{"source": "patent US7354948B2", "about": "“Methods for treatment of chronic uveitis using cyclopropyl-n-{2-[(1S)-1-(3-ethoxy-4-methoxyphenyl)-2-(methylsulfonyl)ethyl]-3-oxoisoindoline-4-yl}carboxamide” (Celgene Corporation, priority 2002, dated 2008)", "key": {"[1]": {"test_system": "TNF-α production following LPS-stimulation of human PBMC and human whole blood", "assay": "Modulation of cytokine production, in vitro studies", "type": "cell-based", "conditions": "compared with thalidomide", "source_text": "In a specific embodiment, the pharmacological properties of 3-(3,4-dimethoxy-phenyl)-3-(1-oxo-1,3-dihydro-isoindol-2-yl)-propionamide are characterized in in vitro studies. Studies examine the effects of the compound on the production of various cytokines. Inhibition of TNF-α production following LPS-stimulation of human PBMC and human whole blood by the compound is investigated in vitro. […] The pharmacological effects of 3-(3,4-dimethoxy-phenyl)-3-(1-oxo-1,3-dihydro-isoindol-2-yl)-propionamide may derive from its action as an inhibitor of the generation of inflammatory cytokines."}, "anesthetized dogs": {"test_system": "anesthetized dogs", "assay": "Toxicology study: cardiovascular and respiratory function in anesthetized dogs", "type": "in vivo, Beagle dogs", "method": "The effects of 3-(3,4-dimethoxy-phenyl)-3-(1-oxo-1,3-dihydro-isoindol-2-yl)-propionamide on cardiovascular and respiratory function are investigated in anesthetized dogs. Two groups of Beagle dogs (2/sex/group) are used. One group receives three doses of vehicle only and the other receives three ascending doses of the compound (200, 400, and 800 mg/kg). In all cases, doses of the compound or vehicle are successively administered via infusion through the jugular vein separated by intervals of at least 30 minutes."}}}
{"smiles": "COc1ccc(C(CC(N)=O)N2Cc3ccccc3C2=O)cc1OC", "note": "(stereo not shown) [3-(3,4-dimethoxy-phenyl)-3-(1-oxo-1,3-dihydro-isoindol-2-yl)-propionamide]", "values": [{"measurement": "pharmacological activity profile, potency relative to thalidomide", "setting": "[1]", "result": "five to fifty times more potent than thalidomide"}, {"measurement": "cardiovascular and respiratory changes", "setting": "anesthetized dogs; all doses (200, 400, and 800 mg/kg), infusion through the jugular vein, compared to vehicle control group", "result": "minimal"}, {"measurement": "arterial blood pressure", "setting": "anesthetized dogs; following the low dose, only statistically significant difference between vehicle and treatment groups", "result": "small increase"}, {"measurement": "arterial blood pressure effect", "setting": "anesthetized dogs; higher doses", "result": "not seen"}]}
